Read-outs that look alike come from different tables or passages of the source.
Experiments:
[1] = tested on: Green Peach Aphid (Myzus persicae); format: in vivo
[2] = tested on: Resistant Cotton Melon Aphid (Aphis gossypii); format: in vivo
[3] = tested on: Small Brown Planthopper (Laodelphax striatellus); experiment: Insecticidal test on small brown planthopper, sprayed rice seedlings, mortality after 6 days; format: in vivo
Description: Insecticidal Test on Small Brown Planthopper (Laodelphax striatellus)
A liquid chemical which was diluted and prepared to the prescribed concentration was sprayed on rice seedlings (cultivar: koshihikari), air-dried, and then 10 three-stage insects of Laodelphax striatellus were put into a glass test tube having a diameter of 3 cm and a height of 10 cm along with the seedlings. The test tube was cotton plugged. After 6 days from the treatment, the number of surviving insects was examined and the mortality was calculated (two replications of 10 insects per plot).

[4] = tested on: 2-spotted Spider Mite (Tetranychus urticae); experiment: Insecticidal test on 2-spotted spider mite, kidney bean leaf disc with eggs, hatchability of larvae after 6 days; format: in vivo; conditions: 6 days after spraying
Description: Insecticidal Test on 2-spotted Spider Mite (Tetranychus urticae)
A plastic cup having a diameter of 8 cm was filled with water and covered by a lid with a hole having a diameter of 1 cm. Absorbent cotton was put on the top of the lid and dropped into water from the lid such that the absorbent cotton was always in a wet state due to a capillary phenomenon. A leaf disc having a diameter of 2 cm was prepared with primary leaves of kidney beans (cultivar: Green top) and placed on the aforementioned absorbent cotton. 4 adult female insects of Tetranychus urticae were inoculated thereon. Next day, the adult female insects were removed, and then the number of insect egg was examined. A liquid chemical which was prepared to the prescribed concentration was sprayed by using a vertical sprayer. After spraying, the resulting cup was allowed to stand in an isothermal chamber maintained at 25 degree centigrade. After 6 days from spraying, the number of hatched larvae that survived on the leaf disc was examined and the hatchability of larvae was calculated (two replications of one concentration per chemical).

[5] = tested on: Tiger Moth (Trichoplusia ni); experiment: Insecticidal test on tiger moth, cabbage leaf dip, mortality after 6 days; format: in vivo; conditions: 6 days after treatment
Description: Insecticidal Test on Tiger Moth (Trichoplusia ni)
Cut leaves of cabbages (cultivar: shiki-kaku) were immersed in a liquid chemical which was diluted and prepared to the prescribed concentration for 30 seconds, air-dried, and then put into a plastic vessel having a diameter of 9 cm. Each of 10 second-stage insects of Trichoplusia ni was inoculated and the resulting vessel was allowed to stand in an isothermal chamber maintained at 25 degree centigrade. After 6 days from the treatment, the number of surviving insects was examined and the mortality was calculated (two replications of 10 insects per plot).

[6] = tested on: Rice Blast (Pyricularia oryzae); format: in vivo
[7] = tested on: Rice Striped Stem Borer (Chilo suppressalis)
[8] = tested on: Small Brown Planthopper (Laodelphax striatellus); experiment: Control test on small brown planthopper, nursery box application of paddy rice, number of parasitic insects after 40 and 60 days; format: in vivo
Description: (§1) Control Test on Small Brown Planthopper (Laodelphax striatellus) and Rice Leafroller (Cnaphalocrocis medinalis) on Nursery Box Application of Paddy Rice
(§2) Rice (cultivar: Nihonbare) cultured in a nursery box was treated with 50 g of a granule formulation per box, and then transplanted to the rice field. For the control effect against Laodelphax striatellus, the number of parasitic insects was examined for 30 stumps per plot after 40 days and 60 days from the transplantation. In addition, for the control effect against Cnaphalocrocis medinalis, the number of infected leaves was examined for 100 stumps per plot after 50 days from the transplantation, and the infected leaf rate was calculated. In the Table, gai represents the amount of active ingredients (g).

[9] = tested on: Rice Leafroller (Cnaphalocrocis medinalis); experiment: Control test on rice leafroller, nursery box application of paddy rice, infected leaf rate after 50 days; format: in vivo; conditions: 50 days after transplantation
Description: as §1, §2

[10] = tested on: Common Straight Swift Butterfly (Parnara guttata); experiment: Control test on common straight swift butterfly of paddy rice, powder spray, number of insects after 20 days (Test Example 9); format: in vivo; conditions: 20 days after spraying
Source text: (§3) Control Test on Common Straight Swift Butterfly (Parnara guttata) and Sheath Blight (Rhizoctonia solani) of Paddy Rice
(§4) A powder of a prescribed amount was sprayed on rice (cultivar: koshihikari) after 70 days from the transplantation (middle of May) Leaves on which Parnara guttata was parasitic before spraying were eliminated. After 20 days from spraying, the number of insects was examined for 100 stumps in each plot. Furthermore, 7 days before spraying, Rhizoctonia solani cultured on a bran medium was inoculated into the base of the plant. After 30 days from spraying, the number of infected stumps was examined for 100 stumps in each plot and the rate of infected stumps was calculated. In the Table, gai represents the amount of active ingredients (g).

[11] = tested on: Sheath Blight (Rhizoctonia solani); experiment: Control test on sheath blight of paddy rice, powder spray, rate of infected stumps after 30 days; format: in vivo; conditions: 30 days after spraying
Source text: as §3, §4

[12] = 3 ppm, foliar spray on eggplant, 5 days after spraying
[13] = 3 ppm, foliar spray on cucumber, 5 days after spraying
[14] = 3 ppm, sprayed rice seedlings, 6 days after treatment
[15] = 250 ppm, foliar spray on eggplant, 5 days after spraying
[16] = 250 ppm, foliar spray on cucumber, 5 days after spraying
[17] = Laodelphax striatellus, 144 h, 25 ppm, sprayed rice seedlings, 6 days after treatment
[18] = 100 ppm, foliar spray on eggplant, 5 days after spraying
[19] = 100 ppm, foliar spray on cucumber, 5 days after spraying

CN(C(=O)c1ccccc1)c1cccc(C(=O)Nc2c(Br)cc(SC(F)(F)C(F)(F)C(F)(F)F)cc2Br)c1 [Compound 1126]
Control rate (%) [1, 12]: 0%
Control rate (%) [2, 13]: 3%
Mortality (%) [3, 14]: 10%
Hatchability of larvae (%) ([4]; 50 ppm): 73%
Mortality (%) ([5]; 0.5 ppm): 70%

Cc1cc(C(F)(C(F)(F)F)C(F)(F)F)cc(C)c1NC(=O)c1cccc(N(C)C(=O)c2ccc(C#N)cc2)c1F [Compound 1217]
Control rate (%) [1, 12]: 21%
Control rate (%) [2, 13]: 15%
Mortality (%) [3, 14]: 15%
Hatchability of larvae (%) ([4]; 50 ppm): 74%
Mortality (%) ([5]; 0.5 ppm): 65%
Pyricularia oryzae Control value ([6]; in vivo): 7
Chilo suppressalis Mortality (%) ([7]; 5 gai/box): 90%

Cc1cc(C(F)(C(F)(F)F)C(F)(F)F)cc(C)c1NC(=O)c1cccc(N(C)C(=O)c2cccc(F)c2)c1F [Compound 1219]
Control rate (%) [1, 12]: 17%
Control rate (%) [2, 13]: 15%
Mortality (%) [3, 14]: 10%
Hatchability of larvae (%) ([4]; 50 ppm): 80%
Mortality (%) ([5]; 0.5 ppm): 65%

Cc1cc(C(F)(C(F)(F)F)C(F)(F)F)cc(C)c1NC(=O)c1cccc(N(C)C(=O)c2cccnc2)c1F [Compound 1244]
Laodelphax striatellus Number of parasitic insects/30 stumps ([8]; 5 gai/box, 40 days): 72 insects/30 stumps
Laodelphax striatellus Number of parasitic insects/30 stumps ([8]; 5 gai/box, 60 days): 132 insects/30 stumps
Cnaphalocrocis medinalis Infected leaf rate (%) ([9]; 5 gai/box): 0.25%

CN(C(=O)c1cccc(NC(=O)c2ccccc2)c1)c1c(Br)cc(SC(F)(F)C(F)(F)C(F)(F)F)cc1Br [Compound 1480]
Control rate (%) [1, 12]: 7%
Control rate (%) [2, 13]: 3%
Mortality (%) [3, 14]: 10%
Hatchability of larvae (%) ([4]; 50 ppm): 85%
Mortality (%) ([5]; 0.5 ppm): 75%

CN(C(=O)c1ccccc1F)c1cccc(C(=O)N(C)c2c(Br)cc(SC(F)(F)C(F)(F)C(F)(F)F)cc2Br)c1 [Compound 1617]
Control rate (%) [1, 12]: 0%
Control rate (%) [2, 13]: 5%
Mortality (%) [3, 14]: 5%
Hatchability of larvae (%) ([4]; 50 ppm): 78%
Mortality (%) ([5]; 0.5 ppm): 75%

Cc1cc(C(F)(C(F)(F)F)C(F)(F)F)cc(C)c1NC(=O)c1cccc(NC(=O)c2cccnc2Cl)c1 [Compound No. 106, N-(2,6-dimethyl-4-heptafluoroisopropyl)phenyl 3-[(2-chloropyridin-3-yl)carbonylamino]benzamide]
Pyricularia oryzae Control value ([6]; in vivo): 5
Chilo suppressalis Mortality (%) ([7]; 5 gai/box): 90%

CC(C)OC(=O)C(C(=O)OC(C)C)=C1SCCS1 [Isoprothiolane]
Pyricularia oryzae Control value ([6]; 6 gai/box): 92
Chilo suppressalis Mortality (%) ([7]; 6 gai/box): 0%

COP(=O)(NC(C)=O)SC (centres unmarked) [acephate]
Control rate (%) [1, 15]: 97%
Control rate (%) [2, 16]: 0%

CCCCCCCCCCCCC1=C(OC(C)=O)C(=O)c2ccccc2C1=O [acequinocyl]
Hatchability of larvae (%) ([4]; 5 ppm): 29%

CCOC(=O)CCN(SN(C)C(=O)Oc1cccc2c1OC(C)(C)C2)C(C)C [benfuracarb]
Laodelphax striatellus Number of parasitic insects/30 stumps ([8]; 2.5 gai/box, 40 days): 12 insects/30 stumps
Laodelphax striatellus Number of parasitic insects/30 stumps ([8]; 2.5 gai/box, 60 days): 31 insects/30 stumps
Cnaphalocrocis medinalis Infected leaf rate (%) ([9]; 2.5 gai/box): 1.28%

COc1ccc(-c2ccccc2)cc1NNC(=O)OC(C)C [bifenazate]
Hatchability of larvae (%) ([4]; 5 ppm): 60%

CC(C)N1C(=O)N(c2ccccc2)CS/C1=N\C(C)(C)C [buprofezin]
mortality at 25 ppm [3, 17]: 95%

C[C@@H](NC(=O)C(C#N)C(C)(C)C)c1ccc(Cl)cc1Cl (some centres unmarked) [diclocymet]
Pyricularia oryzae Control value ([6]; 1.5 gai/box): 95
Chilo suppressalis Mortality (%) ([7]; 1.5 gai/box): 0%

Cc1c(Cl)cc(-c2ccc(=O)[nH]n2)cc1Cl [diclomezine]
Number of insects (number/100 stumps) ([10]; 48 gai/10a): 167 number/100 stumps
Rate of infected stumps (%) ([11]; 48 gai/10a): 3%

CN/C(=N/CC1CCOC1)N[N+](=O)[O-] (centres unmarked) [dinotefuran]
Control rate (%) ([1]; in vivo): 99%
Control rate (%) ([2]; in vivo): 98%
mortality at 5 ppm ([3]; Laodelphax striatellus, 144 h, 5 ppm, sprayed rice seedlings, 6 days after treatment): 95%
mortality at 3 ppm ([5]; Trichoplusia, foliar, 144 h, 3 ppm): 40%

CC[S+]([O-])c1c(C#N)nn(-c2c(Cl)cc(C(F)(F)F)cc2Cl)c1N (centres unmarked) [ethiprole]
Control rate (%) [1, 18]: 98%
Control rate (%) [2, 19]: 96%
mortality at 25 ppm [3, 17]: 90%

CCOc1ccc(C(C)(C)COCc2cccc(Oc3ccccc3)c2)cc1 [ethofenprox]
Control rate (%) [1, 18]: 98%
Control rate (%) [2, 19]: 75%
Mortality (%) ([3]; 25 ppm, sprayed rice seedlings, 6 days after treatment): 95%
Mortality (%) ([5]; 3 ppm): 45%

CCOc1cc(C(C)(C)C)ccc1C1COC(c2c(F)cccc2F)=N1 (centres unmarked) [etoxazol]
Hatchability of larvae (%) ([4]; 0.1 ppm): 33%

CC(C)([CH2][Sn]([CH2]C(C)(C)c1ccccc1)([CH2]C(C)(C)c1ccccc1)[O][Sn]([CH2]C(C)(C)c1ccccc1)([CH2]C(C)(C)c1ccccc1)[CH2]C(C)(C)c1ccccc1)c1ccccc1 [fenbutatin oxide]
Hatchability of larvae (%) ([4]; 25 ppm): 42%

COP(=S)(OC)Oc1ccc([N+](=O)[O-])c(C)c1 [fenitrothion]
mortality at 100 ppm ([3]; Laodelphax striatellus, 144 h): 85%

N#Cc1nn(-c2c(Cl)cc(C(F)(F)F)cc2Cl)c(N)c1[S+]([O-])C(F)(F)F (centres unmarked) [fipronil]
mortality at 0.5 ppm ([5]; Trichoplusia, foliar, 144 h, 0.5 ppm): 55%

N#CCNC(=O)c1cnccc1C(F)(F)F [flonicamid]
Control rate (%) [1, 18]: 97%
Control rate (%) [2, 19]: 97%
Mortality (%) ([3]; 20 ppm, sprayed rice seedlings, 6 days after treatment): 95%

CC(C)Oc1cccc(NC(=O)c2ccccc2C(F)(F)F)c1 [flutolanil]
Number of insects (number/100 stumps) ([10]; 80 gai/10a): 153 number/100 stumps
Rate of infected stumps (%) ([11]; 80 gai/10a): 2%

Cc1nn(C)c(Cl)c1C(=O)Nc1cccc2c1C(C)OC2(C)C (centres unmarked) [furametpyr]
Number of insects (number/100 stumps) ([10]; 20 gai/10a): 161 number/100 stumps
Rate of infected stumps (%) ([11]; 20 gai/10a): 2%

CNC(=O)ON=C(C)SC [methomyl]
Control rate (%) [1, 15]: 96%
Control rate (%) [2, 16]: 10%

CNC(=O)/C(=N/OC)c1ccccc1CO/N=C(C)/C(=N/OC)C(/C)=N/OC [orysastrobin]
Pyricularia oryzae Control value ([6]; 3.5 gai/box): 93
Chilo suppressalis Mortality (%) ([7]; 3.5 gai/box): 5%

O=C(Nc1ccccc1)N(Cc1ccc(Cl)cc1)C1CCCC1 [pencycuron]
Number of insects (number/100 stumps) ([10]; 60 gai/10a): 159 number/100 stumps
Rate of infected stumps (%) ([11]; 60 gai/10a): 1%

C=CCOC1=NS(=O)(=O)c2ccccc21 [probenazole]
Pyricularia oryzae Control value ([6]; 12 gai/box): 94
Chilo suppressalis Mortality (%) ([7]; 12 gai/box): 5%

CC1=NNC(=O)N(/N=C/c2cccnc2)C1 [pymetrozine]
Control rate (%) [1, 18]: 96%
Control rate (%) [2, 19]: 95%
mortality at 25 ppm [3, 17]: 95%

CC(C)(C)c1ccc(CSc2cnn(C(C)(C)C)c(=O)c2Cl)cc1 [pyridaben]
Hatchability of larvae (%) ([4]; 2 ppm): 48%

CCOc1ccc([Si](C)(C)CCCc2ccc(F)c(Oc3ccccc3)c2)cc1 [silafluofen]
mortality at 25 ppm [3, 17]: 95%

CCC(C)(C)C(=O)OC1=C(c2ccc(Cl)cc2Cl)C(=O)OC12CCCCC2 [spirodiclofen]
Hatchability of larvae (%) ([4]; 3 ppm): 50%

Cc1cccc2sc3nncn3c12 [tricyclazole]
Pyricularia oryzae Control value ([6]; 2 gai/box): 95
Chilo suppressalis Mortality (%) ([7]; in vivo): 5%

milbemectin
Hatchability of larvae (%) ([4]; 5 ppm): 18%

spinosad
Mortality (%) ([5]; 0.1 ppm): 60%

— patent publication US8163804B2 (priority 2005, dated 2012)
